Laboratory results published in a melting point compilation (Tetko et al.).

Structure (SMILES)	melting point [°C]
O=C(NC1CCc2ccccc21)c1ccnc(F)c1 (configuration not stated)	121 to 123
NC(=O)c1ccc(C(=O)O)cn1	347 to 349
O=[N+]([O-])c1ccc(NC2CCOc3ccccc32)cc1 (configuration not stated)	124 to 126
NC(=S)N1CCCCCC1	151 to 153
COc1ccc(C(=O)O)cc1S(=O)(=O)NCc1ccncc1	225 to 227
Cc1ccc(S(=O)(=O)Cl)cc1C(=O)O	149 to 151
Nc1nnc(CCOc2ccccc2)o1	142 to 144
Cn1cc([N+](=O)[O-])cn1	91 to 93
OCc1ccnc(-n2ccnc2)c1	155 to 157
OC(CCl)CNCc1ccccc1 (configuration not stated)	63 to 65
COc1ccc(C=NO)cc1OCc1ccccc1	75 to 77
CC(C)(Sc1ccc(Br)cc1)C(=O)O	109 to 111
Cc1sc2nc(S)n(C)c(=O)c2c1C	288 to 290
Cc1n[nH]c(C)c1S(=O)(=O)N1CCC(C)CC1	178 to 180
CC(=O)c1c(C)cc(C)c(CCl)c1C	74 to 76
CCCCn1c(SCC(=O)O)nc2cc(C(F)(F)F)ccc21	120 to 122
CC(C)n1ncc2c(C(=O)O)cc(-c3ccccc3)nc21	198 to 200
CS(=O)(=O)OC1CCCC(S(C)(=O)=O)C1 (configuration not stated)	119 to 121
Cc1nn(C)c2c1NCCS2(=O)=O	110 to 112
NNC(=O)c1sc2cc(F)ccc2c1Cl	239 to 241
COC(=O)c1sc(C)cc1O	51 to 53
Cc1n[nH]cc1C=O	104 to 106
O=C1CSc2ccncc2N1	203 to 205
CN(C)C(=O)c1cccc(S(N)(=O)=O)c1	121 to 123
CS(=O)(=O)CCC(NC(=O)c1ccc(Cl)cc1)C(=O)O (configuration not stated)	184 to 186

Structure (SMILES)	melting point [°C]
CC1(C)C(=O)Nc2ccc(Br)cc21	156 to 158
CCOC(=O)c1noc(C)n1	32 to 34
COc1ccc2c(c1)OCC(C=O)=C2	82 to 84
CCN1C(=O)CNC1=O	100 to 102
Cc1ccccc1-c1nnc(Cl)n1-c1ccccc1C	200 to 202
O=C(O)CNC(=O)c1ccc(C(F)(F)F)cc1	154 to 156
CC(C)(C)C1CCc2[nH]c3ccc(Cl)cc3c2C1 (configuration not stated)	107 to 109
Nc1cc2c(=O)[nH]cnc2cc1F	319 to 321
COC(=O)c1noc(C)c1C(=O)c1ccccc1	90 to 92
O=Cc1ccc(-c2ccc(Cl)c(Cl)c2)s1	126 to 128
CSc1cc(C(=O)O)c(Cl)cc1Cl	192 to 194
CCC(C)C(NC(N)=O)C(=O)O (configuration not stated)	205 to 207
COC(=O)C1CCCN1C(=O)c1ccc([N+](=O)[O-])s1 (configuration not stated)	119 to 121
Cc1cc(NC(N)=S)n(C)n1	218 to 220
COc1ncccc1O	64 to 66
Cc1cncc(N)c1	59 to 63
CC(C)NS(=O)(=O)c1ccc(F)c(C(=O)O)c1	167 to 169
Fc1cc2ncnc(Cl)c2cc1F	89 to 91
COc1ccc2c(c1)C=C(C#N)CO2	72 to 74
O=C(CCl)NCCc1nc2ccccc2s1	90 to 92
O=C(O)COc1cccc(Br)c1	108 to 110
CCC(=O)c1ccc(N(C)C)cc1	104 to 106
O=Cc1ccccc1OCC(=O)N1CCCC1	112 to 114
O=C1CCOc2c(Cl)cccc21	62 to 64
Sc1nnc(C2CC2)n1Cc1ccccc1	176 to 178

Structure (SMILES)	melting point [°C]
Clc1ccc2c(c1)NCCS2	110 to 112
Nc1nnc(Cc2ccc(Cl)cc2)o1	167 to 169
O=C(O)c1cc([N+](=O)[O-])ccc1Oc1ccccc1	167 to 169
Nc1ccc2[nH]c(=O)c(=O)[nH]c2c1	352 to 354
O=C(O)c1cn(-c2ccc(C(F)(F)F)cn2)nn1	134 to 136
COC(=O)C(C)Oc1ccc(F)cc1Br (configuration not stated)	38 to 40
CCOC(=O)c1ccc(S(N)(=O)=O)nc1	114 to 116
O=C(O)CCNC(=O)c1cnccn1	55 to 57
O=c1cc(CO)nc2ccccn12	172 to 174
COc1cccc(OC)c1CO	53 to 55
CN(C)C(=O)c1cc(F)c(NN)c(F)c1	74 to 76
N#Cc1ccc(OCCBr)cc1	55 to 59
Cn1cnc([N+](=O)[O-])c1CCl	127 to 129
COc1cc(Br)c(F)cc1S(=O)(=O)Cl	79 to 81
Cc1ccc(N)cc1N1CCOC1=O	130 to 132
O=C(O)c1cccc(=O)n1CCOc1ccccc1Cl	118 to 120
CC(C)c1nnc(CCC(=O)O)o1	84 to 86
O=C(O)C1CCCN(C(=O)c2ccncc2)C1 (configuration not stated)	258 to 260
Cc1c(C(=O)O)cc(S(N)(=O)=O)cc1[N+](=O)[O-]	172 to 174
CC(CC(=O)O)NCCO (configuration not stated)	180 to 182
CNC(=O)C1(C(=O)O)CCC1	144 to 146
NC(=NO)c1ccsc1	66 to 68
Nc1cccc(Oc2ccncc2)c1	107 to 109
COC(=O)C1(O)CCN(Cc2ccccc2)CC1	75 to 77
O=[N+]([O-])c1cc(S(=O)(=O)NCCN2CCOCC2)ccc1Cl	119 to 121

Structure (SMILES)	melting point [°C]
C=CCn1c(S)nc2sc3c(c2c1=O)CCC(C)C3 (configuration not stated)	228 to 230
CNS(=O)(=O)N1CCc2ccccc2C1	88 to 90
O=C(O)c1ccc(F)cc1I	144 to 146
Cc1ccc(C(=O)CCl)s1	45 to 47
O=S(=O)(c1ccc2c(c1)CCN2)N1CCCCC1	171 to 173
CC1CCCC(C(N)C(=O)O)C1 (configuration not stated)	301 to 303
O=Cc1cnc(-c2ccsc2)s1	107 to 109
Nc1cccc(CN2CCN(c3ccccn3)CC2)c1	168 to 170
O=C(CC1(C(=O)O)CCCC1)N1CCOCC1	150 to 152
O=C(O)c1oc2ccccc2c1CSc1cccs1	166 to 168
O=C1COCC(=O)N1	141 to 143
COC(=O)c1cc(=O)c2ccccc2[nH]1	223 to 225
O=C(O)c1cccnc1-n1cccn1	106 to 108
O=S(=O)(CCCl)c1ccc(Br)cc1	110 to 112
NC(=O)c1cncn1-c1ccccc1	182 to 184
Sc1nnc(-c2ccccc2Br)o1	200 to 202
CCN1CCCC1CNC(=O)C1CCNCC1 (configuration not stated)	191 to 194
CN(C)c1ccc(CNC(=O)CCl)cc1	59 to 61
CCOC(=O)c1c(N)sc2c1CCNC2	121 to 123
O=C(O)c1cc(-c2cccs2)nc2onc(C3CC3)c12	236 to 238
COc1ccc(-n2c(C)cc(C(=O)CCl)c2C)cc1	91 to 95
O=C(O)CCC(=O)N1CCN(c2ncccn2)CC1	166 to 168
Clc1cc(SCc2ccccc2)ccn1	61 to 63
NNC(=O)CNc1cccc(C(F)(F)F)c1	80 to 82
CN(C)C(=O)CCn1cc(Br)cn1	64 to 66

Structure (SMILES)	melting point [°C]
NC(=O)c1ccccc1OCCC(=O)O	174 to 176
O=C(O)CCNS(=O)(=O)c1ccccc1C(F)(F)F	142 to 144
O=C1CCC(c2ccccc2)N1 (configuration not stated)	97 to 99
O=C(O)C=CC(=O)Nc1ccc(F)c(Cl)c1	189 to 191
O=C(CCl)NCc1ccccc1OC(F)(F)F	66 to 68
CC(C)CC(=O)NCCc1ccc(S(=O)(=O)Cl)s1	79 to 81
O=C(O)CNC(=O)c1cc2c(s1)CCC2	207 to 209
CC(C)(C)c1ccc(C2(C(=O)O)CC2)cc1	201 to 203
O=Cc1cn(Cc2ccccc2)nc1-c1ccccc1	85 to 87
CCN(CC)C(=O)c1ccc(O)cc1	120 to 122
O=C1C=CC(=O)N1c1cccc2cnccc12	134 to 136
O=C1CCC(C(=O)O)CN1 (configuration not stated)	174 to 176
Nc1ccc(S(=O)C(F)(F)F)cc1 (configuration not stated)	76 to 78
O=C(c1ccccc1)c1ccc(Br)cc1F	76 to 78
Cc1cccc(C)c1C(C)O (configuration not stated)	59 to 61
O=C(CCl)NC(=O)NCc1cccs1	148 to 150
CC(=O)CC(=O)c1ccc(Br)cc1	92 to 94
NNC(=O)C(=O)NCc1ccco1	158 to 160
CCOCCS(=O)(=O)NCC(=O)O	63 to 65
N#Cc1ccc(N=C=O)cc1	101 to 104
C=CCNS(=O)(=O)c1ccccc1F	100 to 102
Cc1cc(O)c(C(=O)O)cc1S(=O)(=O)Cl	162 to 164
Cc1ccccc1-c1cc(N)on1	99 to 101
CNCc1c(C)nn(-c2ccccc2C)c1C	41 to 43
NCc1noc(-c2cccs2)n1	146 to 148

Structure (SMILES)	melting point [°C]
O=C(O)CCCNS(=O)(=O)c1ccc2c(c1)OCCO2	120 to 122
CC1CCC2(CC1)COC(=O)N2 (configuration not stated)	126 to 128
O=C1Nc2ccc(S(=O)(=O)Cl)cc2C1=O	184 to 186
O=C(O)c1ccc(-c2cscn2)cc1	278 to 280
Nc1cc(S(N)(=O)=O)ccc1O	199 to 201
COc1ccc(-c2nc(C(=O)O)cs2)cc1OC	204 to 206
Cc1ccccc1-n1nnnc1S	65 to 67
CC1CCCC(O)(CN)C1 (configuration not stated)	59 to 61
CC(C)(C)c1ccc2c(c1)C(=O)C(=O)N2	145 to 147
Cc1ccc(Br)cc1N1CCCS1(=O)=O	144 to 146
CC(C)(C)C1CNC(=O)C1 (configuration not stated)	130 to 132
NC(=O)c1ccc(F)c(N)c1	137 to 139
Fc1ccc(NC2CCOCC2)nc1	115 to 117
O=C(O)CCCCCNS(=O)(=O)c1ccc2c(c1)OCCO2	86 to 90
Nc1ccc(Oc2ccc(Br)cc2)cc1	58 to 60
O=C(O)C1CCCN1C(=O)C1CCCCC1 (configuration not stated)	135 to 137
COc1ccc(CNc2nnc(S)s2)cc1	137 to 139
CC(=O)CC(=O)NCCc1ccccc1	57 to 59
O=C(O)C1CC(=O)N(c2ccc(F)cc2)C1 (configuration not stated)	121 to 123
CCc1ccc(C(=O)O)cc1CC	100 to 102
CNc1nc(C)cc(C)c1C#N	147 to 149
Cn1nc(C(C)(C)C)cc1NC(=O)CCl	138 to 140
